From paper PMC11760959, “Broad substrate scope C-C oxidation in cyclodipeptides catalysed by a flavin-dependent filament” (Nature Communications, 2025) come the findings set out here.

The term stoichiometry N denotes a count of units in the complex or per binding partner. As usually defined, the Km is the substrate concentration at which the rate is half of its maximum.

For assay [1], the target named is NdasCDO subunit B (NdasCDO-B), cyclodipeptide oxidase subunit B from Nocardiopsis dassonvillei (Nocardiopsis dassonvillei) (UniProt D7B1W7). Briefly: cryo-EM structure; helical reconstruction of NdasCDO filaments; purified complex dialysed against 20 mM Tris pH 9, 200 mM NaCl, 5 mM DTT, 4 uM on the grid; local refinement with a mask over two dimers of subunit A and two dimers of subunit B.

The test system of the next assay is T1, NdasCDO.
T1 construct: gene Ndas1146; both subunits co-expressed from pRSFDuet-1 in E. coli BL21(DE3), nickel HisTrap purified; A monomer 22 kDa, B monomer 11 kDa; filament of alternating A and B homodimers (A2B2 repeat)
The assay is described as follows: UV absorbance, initial rates. The format is biochemical, Nocardiopsis dassonvillei. Particulars: 50 mM Tris pH 9.0, 200 mM NaCl, 30 °C; O2 as oxidant.

The target in assay [2] is NdasCDO subunit A (NdasCDO-A), cyclodipeptide oxidase subunit A from Nocardiopsis dassonvillei (Nocardiopsis dassonvillei) (UniProt D7B1W6). The assay is described as follows: cryo-EM structure; helical reconstruction of NdasCDO filaments; purified complex dialysed against 20 mM Tris pH 9, 200 mM NaCl, 5 mM DTT, 4 uM on the grid; local refinement with a mask over two dimers of subunit A and two dimers of subunit B.

As for “NdasCDO subunit B (NdasCDO-B), cyclodipeptide oxidase subunit B from Nocardiopsis dassonvillei (from UniProt D7B1W7 1-105) (enzyme)”, the stoichiometry N in assay [1] worked out at 2.

For `O=C1N[C@@H](Cc2c[nH]c3ccccc23)C(=O)N[C@H]1CO` [cWS], the Km in the assay with NdasCDO came out at 800 µM. Same read-out and setting: the same measure for `O=C1N[C@@H](Cc2c[nH]c3ccccc23)C(=O)N[C@H]1Cc1ccccc1` [cWF]: 80 µM.

Regarding “NdasCDO subunit A (NdasCDO-A), cyclodipeptide oxidase subunit A from Nocardiopsis dassonvillei (from UniProt D7B1W6 2-157) (enzyme)”, the stoichiometry N in assay [2] worked out at 2. For the compound `O=C1CNC(=O)[C@H](Cc2ccccc2)N1` [cFG], in the assay with NdasCDO, the Km stood at 4200 µM.
